Source: paper PMC7170901, “Design and efficient synthesis of pyrazoline and isoxazole bridged indole C-glycoside hybrids as potential anticancer agents” (Scientific Reports, 2020)

Key:
Type in all cases: cell-based
MCF-7 cells = assay: LDH cytotoxicity assay; conditions: MCF-7, 25 µM; for cytotoxicity at 25 µM: Homo sapiens, MCF7, 48 h, read-out: % Cytotoxicity (LDH release relative to maximum LDH control); for % Cytotoxicity (LDH release relative to maximum LDH control): 48 h, 25 µM
Text: When living cells treated with a cytotoxic compound, they could either stop growing and dividing, or die through either of two distinct processes i.e. necrosis or apoptosis. Basically, cells undergoing necrosis (accidental cell death) swell and lose membrane integrity before shutting down and releasing their intracellular contents into the surrounding environment. This type of cell death is usually triggered by external factors such as toxic chemical or traumatic physical events. When the cell membranes are damaged or compromised in any way, lactate dehydrogenase (LDH), a soluble yet stable enzyme found inside every living cell, gets released into the surrounding extracellular space. The presence of this enzyme in the culture medium can be used as a cell death marker. The relative amounts of live and dead cells within the medium can then be quantitated by measuring the amount of released LDH using a colorimetric or fluorometric LDH cytotoxicity assay.
Cytotoxicity was assessed with an LDH-cytotoxicity detection kit (Hi media, CCK036), Assays was performed according to assay protocol. Compound was taken at 25 μM concentration. The % of Cytotoxicity was calculated by this formula.
% Cytotoxicity = 100 × A − C/B − C, Where, A = Average absorbance of test. Average absorbance of background control (or vehicle control if applicable), B = Average absorbance of maximum LDH control − Average absorbance of volume correction control C = Average absorbance of untreated control − Average absorbance of background control.
Lactate Dehydrogenase Cell Assay Materials & Methods: (Himedia, product code; […]
Lactate dehydrogenase (LDH) is a cytoplasmic enzyme present in all mammalian cells. Plasma membrane of live cells is impermeable to LDH. However it is rapidly released into the culture medium when plasma membrane is damaged. The quantity of the leaked LDH is used as a measure of cell cytotoxicity. Due to low molecular weight (35kDa) LDH is easily released from the cells even with very minor damage or perturbations in the membrane. This makes the LDH release assay very sensitive.
This Kit has been designed for rapid determination of cell cytotoxicity using an enzyme coupled […]
Lactate Dehydrogenase (LDH) is based on an enzyme coupled reaction in which the LDH released from cells with damaged membrane reduces the tetrazolium dye to a colored formazan product. The reaction takes place in two steps - Step 1:
LDH catalyzes the conversion of lactate to pyruvate via reduction of NAD+ to NADH.
NADH thus generated reduces the tetrazolium dye to a colored formazan product which can be measured spectrophotometrically.
• Kit contents: CCK036(A) LDH reagent 5 x 5ml -20 °C in dark CCK036(B) Lysis solution 5ml -20 °C in dark
CCK036(C) Stop solution 25ml -20 °C in dark
• Cells in appropriate medium
• Adjustable pipettes and a repeat pipettor
• 96-well plate for culturing the cells
• 96-well plate reader capable of measuring the Absorbance at 450nm and more than […]
It is necessary to include different types of controls depending on application of LDH assay.
1. Maximum LDH control: It is recommended to perform maximum LDH estimation to determine total amount of LDH present in the cells.
2. Background control: Significant amount of LDH is present in the serum used for supplementing the culture medium. This contributes to the background absorbance / […]
without cells. Absorbance/fluorescence of background control wells should be subtracted from absorbance / fluorescence values of experimental wells to get corrected
3. Untreated control: Untreated control, also known as vehicle control should be included in the assay to obtain LDH values generated due to the solvent in which test compound is […]
(1 picture or pasted object on this page, not shown here) […]
dissolved. Untreated control wells contain the solvent at a concentration used for dissolving […]
• Preparation of cells: Freshly harvested MCF-7 cells for assay. Seeded in the 96well […]

[1] = tested on: MDA-MB-231 (human breast cancer) cell line; assay: MTT cell viability assay in MDA-MB-231 cells; conditions: Homo sapiens; for viability at 10 µM / viability at 25 µM / viability at 50 µM: MDA-MB-231, 72 h, 72 h, MTT, read-out: Cell Viability (%) ± SD; for viability at 10 µM: MDA-MB-231, 10 µM; for viability at 25 µM: MDA-MB-231, 25 µM; for viability at 50 µM: MDA-MB-231, 50 µM; for IC50: MDA-MB-231, MTT, treated for 48 h, 1, 5, 10, 25 and 50 µM
Procedure: IC50 values were determined by plotting values of percent cell viability against concentration of each of these compounds. […] The experiments were performed in triplicates, n = 3 and ± SE value was calculated for each data point.
The human breast cancer cell line MDA-MB-231 were cultured in Dulbecco’s Modified Eagle’s Medium (DMEM) (Gibco, St. Louis, USA) supplemented with 10% heat inactivated FBS (Fetal Bovine Serum, Gibco, USA) and 1% penicillin-streptomycin (Gibco Canada) in humidified CO2 incubator at 37 °C. The cells were maintained as a monolayer in 100 mm culture plate. The cells used for each experiment were of less than 8 passage number. Sub culturing of cells was performed every third day, followed by trypsin EDTA treatment.
Cell viability assay was performed as per standard protocols. […] Ltd, India). In brief, this is a homogeneous, colorimetric method for determining the number of viable cells in proliferation, cytotoxicity or chemosensitivity assays. MTT is bio reduced by cells into a formazan product that is soluble in the tissue culture medium. […] The absorbance of the formazan product at 595 nm was measured directly from 96-well assay plates without additional processing using a multimode plate reader (Bio-Rad) (iMark, India), as absorbance is directly proportional to the number of viable cells in culture. The percentage of viable cells in each group is determined with respect to the untreated control cells.

[2] = tested on: MCF-7 breast cancer cells; assay: MTT cell viability assay in MCF-7 cells; conditions: Homo sapiens, MCF7; for viability at 1 µM: MCF-7, 1 µM; for viability at 1 µM / viability at 10 µM / viability at 25 µM: read-out: Cell Viability (%) ± SD; for viability at 10 µM: MCF-7, 10 µM; for viability at 25 µM: MCF-7, 25 µM; for IC50: MCF-7, MTT, five concentrations (1.0, 5.0, 10.0, 25 and 50 µM)

IC50 [1] [µM]	IC50 [2] [µM]	Structure (SMILES)	cytotoxicity at 25 µM (MCF-7 cells) [%]	% Cytotoxicity (LDH release relative to maximum LDH control) (MCF-7 cells) [%]	viability at 10 µM [1] [%]	viability at 25 µM [1] [%]	viability at 50 µM [1] [%]	viability at 1 µM [2] [%]	viability at 10 µM [2] [%]	viability at 25 µM [2] [%]
35.5	4.67	OC[C@H]1O[C@@H](CC2=NNC(c3c[nH]c4ccccc34)C2)[C@H](O)[C@@H](O)[C@H]1O (stereo partly shown) [Compound 25, (2 S,3 R,4 R,5 R,6 R)-2-((5-(1H-indol-3-yl)-4,5-dihydro-1H-pyrazol-3-yl)methyl)-6-(hydroxy-methyl)tetrahydro-2H-pyran-3,4,5-triol]	21.8	22	97.6 ± 3.36	54.2 ± 7.06	43.8 ± 13	66 ± 4.7	34 ± 2.5	19.9 ± 2.9
30.6	30	O=C(/C=C/c1c[nH]c2ccccc12)C[C@@H]1O[C@H](CO)[C@@H](O)[C@H](O)[C@H]1O [Compound 9, (E)-4-(1H-indol-3-yl)-1-((2S,3R,4R,5S,6R)-3,4,5-trihydroxy-6-(hydroxymethyl)tetrahydro-2H-pyran-2-yl)but-3-en-2-one]	12.9	13	71.1 ± 10.5	54 ± 11.2	36.3 ± 4.29	79.7 ± 1.18	62.3 ± 3.6	53.7 ± 4
22.3	0.71	O=[N+]([O-])c1ccc2[nH]cc(-c3cc(C[C@@H]4O[C@H](CO)[C@@H](O)[C@H](O)[C@H]4O)no3)c2c1 [Compound 34, (2 R,3 S,4 R,5 R,6 S)-2-(hydroxymethyl)-6-((5-(5-nitro-1H-indol-3-yl)isoxazol-3-yl)methyl) tetrahydro-2H-pyran-3,4,5-triol]	31.2	31	68.4 ± 5.36	46.1 ± 3.32	43.4 ± 0.26	41.3 ± 3.1	28.4 ± 0.9	23.1 ± 4.4
		OC[C@H]1O[C@@H](Cc2cc(-c3c[nH]c4ccccc34)on2)[C@H](O)[C@@H](O)[C@H]1O [Compound 37, (2 S,3 R,4 R,5 R,6 R)-2-((5-(1H-indol-3-yl)isoxazol-3-yl)methyl)-6-(hydroxymethyl) tetrahydro-2H-pyran-3,4,5-triol]	36.4		74.8 ± 10.7	76.4 ± 10.4	64.4 ± 7.77	30.8 ± 4.2	21.2 ± 3.8	19.1 ± 3.5
	21	O=C(/C=C/c1c[nH]c2ccc(Cl)cc12)C[C@@H]1O[C@H](CO)[C@@H](O)[C@H](O)[C@@H]1O [Compound 20, (E)-4-(5-chloro-1H-indol-3-yl)-1-((2S,3S,4R,5S,6R)-3,4,5-trihydroxy-6-(hydroxymethyl)tetrahydro-2H-pyran-2-yl)but-3-en-2-one]	7.78	8	56.7 ± 23.2	54.3 ± 16.3	62 ± 4.91	79.2 ± 2.6	58.7 ± 2.4	47.3 ± 7.6
